Test results from patent US20220401589A1, “PRE-TARGETING IMAGING AGENTS” (Eli Lilly and Company, priority 2019, published 2022).

What was measured:
[1] = Reduction of tetrazine moiety by ascorbate formulation; assay type: physicochemical
Source text: In another aspect the present embodiments provide a pharmaceutical composition comprising Compound 1 or Compound 2, or pharmaceutically acceptable salt thereof, which is formulated in ethanol (such as, for example 10% EtOH (v/v)) and buffer (which may be PBS buffer), preferably for use in humans. […] Thus, although ascorbate formulation is readily used in many formulations for imaging, it may not be suitable for imaging with the compounds of Formula I or Formula II.

[2] = Dynamic PET-CT imaging, tracer uptake in brain, muscle and bone; assay type: in vivo, Male CD-1 mice; details: for Bone Mean / Brain Mean / Muscle Mean: 60 minute PET scan
Protocol: PET-CT imaging of [^18F]—N-(4-(1,2,4,5-tetrazin-3-yl)benzyl)-4-fluorobenzamide
A Siemens Inveon® Multimodality Scanner (Siemens, Germany) is used for micro PET/CT imaging. Male CD-1 (6-week-old, ˜30 g) mice are anesthetized with 3% isoflurane/97% oxygen and placed on the bed of the scanner. The mice are administered [^18F]—N-(4-(1,2,4,5-tetrazin-3-yl)benzyl)-4-fluorobenzamide via a bolus intravenous tail vein injection (˜[…] in a total volume of 200 μL saline). A total of six (four 60 min and two 90 min) dynamic PET scans are conducted, followed by a short high-resolution CT scan for anatomical registration. PET images are generated for each minute of the acquisition time. Uptake of the tracer in the brain, muscle, and bone are determined by visually drawing regions of interest (ROIs) based on the fused PET/CT images and the corresponding activity values are determined using the Inveon® Research Workplace software. All values are represented as % injected dose per gram (% ID/g).
Bone uptake throughout the scan period remained low, consistent with an absence of defluorination for this tracer. Results of the 90 min scans are similar to the 60 min scan results with peak brain uptake observed at 3.4% ID/g at 2.5 min post injection followed by an immediate wash out to 0.6% ID/g by 59.5 min. Residual uptake is also observed throughout the body of the mouse. Time activity curves are generated for [^18F]—N-(4-(1,2,4,5-tetrazin-3-yl)benzyl)-4-fluorobenzamide in CD-1 male mice (n=4). Data is shown in graphical format in FIGS. 1A and 1B and in tabular format below.

Structure (SMILES): O=C(NCc1ccc(-c2nncnn2)cc1)c1ccc(F)cc1 [Compound 1, N-(4-(1,2,4,5-tetrazin-3-yl)benzyl)-4-fluorobenzamide]
- reduction of the tetrazine moiety [1]: readily reduced

Structure (SMILES): O=C(NCc1ccc(-c2nncnn2)cc1)c1ccc([18F])cc1 [[^18F]—N-(4-(1,2,4,5-tetrazin-3-yl)benzyl)-4-fluorobenzamide]
- Uptake throughout the body ([2]; 60-minute PET scans): observed throughout the body in organs such as the liver, kidneys and heart
- Bone Mean ([2]; time 2.5 min): 1.28 % ID/g
- Brain Mean ([2]; time 2.5 min): 4.06 % ID/g
- Muscle Mean ([2]; time 2.5 min): 1.14 % ID/g
- Bone Mean ([2]; time 3.5 min): 1.09 % ID/g
- Brain Mean ([2]; time 3.5 min): 3.70 % ID/g
- Muscle Mean ([2]; time 3.5 min): 1.13 % ID/g
- Bone Mean ([2]; time 4.5 min): 1.04 % ID/g
- Brain Mean ([2]; time 4.5 min): 3.36 % ID/g
- Muscle Mean ([2]; time 4.5 min): 1.15 % ID/g
- Bone Mean ([2]; time 5.5 min): 1.01 % ID/g
- Brain Mean ([2]; time 5.5 min): 3.20 % ID/g
- Muscle Mean ([2]; time 5.5 min): 1.17 % ID/g
- Bone Mean ([2]; time 6.5 min): 1.07 % ID/g
- Brain Mean ([2]; time 6.5 min): 3.01 % ID/g
- Muscle Mean ([2]; time 6.5 min): 1.10 % ID/g
- Bone Mean ([2]; time 7.5 min): 1.12 % ID/g
- Brain Mean ([2]; time 7.5 min): 2.81 % ID/g
- Muscle Mean ([2]; time 7.5 min): 1.11 % ID/g
- Bone Mean ([2]; time 8.5 min): 1.04 % ID/g
- Brain Mean ([2]; time 8.5 min): 2.62 % ID/g
- Muscle Mean ([2]; time 8.5 min): 1.15 % ID/g
- Bone Mean ([2]; time 9.5 min): 0.97 % ID/g
- Brain Mean ([2]; time 9.5 min): 2.46 % ID/g
- Muscle Mean ([2]; time 9.5 min): 1.09 % ID/g
- Bone Mean ([2]; time 10.5 min): 1.03 % ID/g
- Brain Mean ([2]; time 10.5 min): 2.32 % ID/g
- Muscle Mean ([2]; time 10.5 min): 1.09 % ID/g
- Bone Mean ([2]; time 11.5 min): 1.01 % ID/g
- Brain Mean ([2]; time 11.5 min): 2.17 % ID/g
- Muscle Mean ([2]; time 11.5 min): 1.08 % ID/g
- Bone Mean ([2]; time 12.5 min): 0.93 % ID/g
- Brain Mean ([2]; time 12.5 min): 2.07 % ID/g
- Muscle Mean ([2]; time 12.5 min): 1.06 % ID/g
- Bone Mean ([2]; time 13.5 min): 0.96 % ID/g
- Brain Mean ([2]; time 13.5 min): 1.97 % ID/g
- Muscle Mean ([2]; time 13.5 min): 1.06 % ID/g
- Bone Mean ([2]; time 14.5 min): 0.78 % ID/g
- Brain Mean ([2]; time 14.5 min): 1.88 % ID/g
- Muscle Mean ([2]; time 14.5 min): 1.00 % ID/g
- Bone Mean ([2]; time 15.5 min): 0.89 % ID/g
- Brain Mean ([2]; time 15.5 min): 1.79 % ID/g
- Muscle Mean ([2]; time 15.5 min): 1.02 % ID/g
- Bone Mean ([2]; time 16.5 min): 0.96 % ID/g
- Brain Mean ([2]; time 16.5 min): 1.70 % ID/g
- Muscle Mean ([2]; time 16.5 min): 1.02 % ID/g
- Bone Mean ([2]; time 17.5 min): 0.87 % ID/g
- Brain Mean ([2]; time 17.5 min): 1.64 % ID/g
- Muscle Mean ([2]; time 17.5 min): 1.03 % ID/g
- Bone Mean ([2]; time 18.5 min): 0.92 % ID/g
- Brain Mean ([2]; time 18.5 min): 1.58 % ID/g
- Muscle Mean ([2]; time 18.5 min): 1.05 % ID/g
- Bone Mean ([2]; time 19.5 min): 0.93 % ID/g
- Brain Mean ([2]; time 19.5 min): 1.52 % ID/g
- Muscle Mean ([2]; time 19.5 min): 0.94 % ID/g
- Bone Mean ([2]; time 20.5 min): 1.01 % ID/g
- Brain Mean ([2]; time 20.5 min): 1.47 % ID/g
- Muscle Mean ([2]; time 20.5 min): 0.95 % ID/g
- Bone Mean ([2]; time 21.5 min): 0.88 % ID/g
- Brain Mean ([2]; time 21.5 min): 1.42 % ID/g
- Muscle Mean ([2]; time 21.5 min): 1.06 % ID/g
- Bone Mean ([2]; time 22.5 min): 0.99 % ID/g
- Brain Mean ([2]; time 22.5 min): 1.38 % ID/g
- Muscle Mean ([2]; time 22.5 min): 1.04 % ID/g
- Bone Mean ([2]; time 23.5 min): 0.85 % ID/g
- Brain Mean ([2]; time 23.5 min): 1.33 % ID/g
- Muscle Mean ([2]; time 23.5 min): 0.92 % ID/g
- Bone Mean ([2]; time 24.5 min): 0.88 % ID/g
- Brain Mean ([2]; time 24.5 min): 1.29 % ID/g
- Muscle Mean ([2]; time 24.5 min): 0.96 % ID/g
- Bone Mean ([2]; time 25.5 min): 1.02 % ID/g
- Brain Mean ([2]; time 25.5 min): 1.26 % ID/g
- Muscle Mean ([2]; time 25.5 min): 0.97 % ID/g
- Bone Mean ([2]; time 26.5 min): 0.88 % ID/g
- Brain Mean ([2]; time 26.5 min): 1.23 % ID/g
- Muscle Mean ([2]; time 26.5 min): 0.92 % ID/g
- Bone Mean ([2]; time 27.5 min): 0.83 % ID/g
- Brain Mean ([2]; time 27.5 min): 1.18 % ID/g
- Muscle Mean ([2]; time 27.5 min): 0.89 % ID/g
- Bone Mean ([2]; time 28.5 min): 0.92 % ID/g
- Brain Mean ([2]; time 28.5 min): 1.17 % ID/g
- Muscle Mean ([2]; time 28.5 min): 0.91 % ID/g
- Bone Mean ([2]; time 29.5 min): 0.93 % ID/g
- Brain Mean ([2]; time 29.5 min): 1.14 % ID/g
- Muscle Mean ([2]; time 29.5 min): 0.94 % ID/g
- Bone Mean ([2]; time 30.5 min): 0.92 % ID/g
- Brain Mean ([2]; time 30.5 min): 1.11 % ID/g
- Muscle Mean ([2]; time 30.5 min): 0.93 % ID/g
- Bone Mean ([2]; time 31.5 min): 0.96 % ID/g
- Brain Mean ([2]; time 31.5 min): 1.09 % ID/g
- Muscle Mean ([2]; time 31.5 min): 0.99 % ID/g
- Bone Mean ([2]; time 32.5 min): 0.85 % ID/g
- Brain Mean ([2]; time 32.5 min): 1.07 % ID/g
- Muscle Mean ([2]; time 32.5 min): 0.89 % ID/g
- Bone Mean ([2]; time 33.5 min): 0.95 % ID/g
- Brain Mean ([2]; time 33.5 min): 1.04 % ID/g
- Muscle Mean ([2]; time 33.5 min): 0.93 % ID/g
- Brain Mean ([2]; time 34.5 min): 1.04 % ID/g
- peak brain uptake ([2]; 90 min scans, 2.5 min post injection): 3.4 % ID/g
- brain uptake after wash out ([2]; 90 min scans, by 59.5 min): 0.6 % ID/g
- peak brain uptake ([2]; WT mice, approximately 2.5 min post injection): 4.1±0.3 % ID/g
- brain uptake after steady clearance of tracer ([2]; WT mice, by 60 minutes): 0.8±0.1 % ID/g
- Bone uptake throughout the scan period ([2]; consistent with an absence of defluorination): remained low
- crossing of the blood-brain-barrier ([2]; dynamic PET imaging in mice): readily crosses the blood-brain-barrier
- peak brain uptake ([2]; four 60-minute PET scans, 2.5 min post injection): 4.1 % ID/g
- brain uptake after steady clearance of tracer ([2]; four 60-minute PET scans, at 59.5 min): 0.8 % ID/g
- reduction of the tetrazine moiety [1]: readily reduced
